Measured values published in patent US20210177722A1, “Phytic Acid Ester Derivative” (NATIONAL UNIVERSITY CORPORATION KUMAMOTO UNIVERSITY, priority 2018, published 2021).

Assays:
Caspase-3 = assay: Western blotting (1), Caspase-3 antibody, Jurkat cell; type: cell-based, human; details: 10 μM
Experimental: (§1) In this example, the action mechanism for killing cells by Pro-IP6 was studied by Wester blotting using a Jurkat cell and various antibodies. Jurkat cells (1×10^5 cells/well, culture fluid: 500 μL) were seeded in a 24-well plate to be cultured overnight. Thereafter, DMSO (1%, Fujifilm Wako Pure Chemical Corporation), an aqueous solution (1%) of IP6 (final concentration: 10 μM, Sigma Aldrich), or a DMSO solution (1%) of Pro-IP6 (final concentration: 1 μM or 10 μM) was added thereto, followed by culturing for 8 hours or 24 hours. A supernatant was removed, the resultant was washed with 1× PBS (−) once, Laemmli sample buffer was added thereto, and the resultant was boiled at 100° C. for 1 hour to dissolve the cells. […] Detection was performed using ImmunoStar LD (Fujifilm Wako Pure Chemical Corporation).

Akt = assay: Western blotting (1), anti-phospho-Akt (Thr308) antibody, Jurkat cell; type: cell-based, human; details: 8 hours or 24 hours
Experimental: as §1

virus protein Gag = molecular target: T1, virus protein Gag (Human immunodeficiency virus type 1 group M subtype B, UniProt P12493); assay: Intracellular aggregation of virus protein Gag (fluorescence microscope); type: cell-based; details: HeLa cells, 10 μM, 4 hours
T1 construct: aggregation of virus protein Gag or the MA region thereof; Venus; FLAG (C); expressed in transfected cells; host or cells: HeLa cells
Experimental: HeLa cells (0.5×10^5 cells/well, culture fluid: 300 μL) were seeded in a 8-well chamber slide (Thermo fisher scientific) to be cultured overnight. […] (Thermo fisher scientific) was used to introduce pUC or pEF-Gag(p17)cFLAG, pNL4-3/Gag-Venus, and the resultant was cultured for 10 hours. Thereafter, DMSO (1%, Fujifilm Wako Pure Chemical Corporation) or Pro-IP6 (final concentration: 10 μM) was added thereto, followed by culturing for another 4 hours. The thus obtained cells were fixed with 4% paraformaldehyde (Tokyo Chemical Industry Co., Ltd.), dyed with Hoechst 33342 (Thermo fisher scientific), and observed with a fluorescence microscope, BZ-X800 (Keyence).

TRAF6 = assay: Western blotting (2), anti-TRAF6 antibody, Jurkat cell; type: cell-based, human; details: 1 μM or 10 μM, 8 hours or 24 hours
Experimental: In this example, in the same manner as in Example 4, the action mechanism for killing cells by Pro-IP6 was checked by Wester blotting using a Jurkat cell and various antibodies. Jurkat cells (1×10^5 cells/well, culture fluid: 500 μL) were seeded in a 24-well plate to be cultured overnight. Thereafter, DMSO (1%, Fujifilm Wako Pure Chemical Corporation), an aqueous solution (1%) of IP6 (final concentration 10 μM, Sigma Aldrich), or a DMSO solution (1%) of Pro-IP6 (final concentration: 1 μM or 10 μM) was added thereto, followed by culturing for 8 hours or 24 hours. A supernatant was removed, the resultant was washed with 1× PBS (−) once, Laemmli sample buffer was added thereto, and the resultant was boiled at 100° C. for […] to dissolve the cells. The resultant was subjected to electrophoresis and then transferred onto a membrane (Millipore). […] Detection was performed using ImmunoStar LD (Fujfilm Wako Pure Chemical Corporation).

[1] = tested on: S1T cell (ATL cell line) tumor; assay: Effect on HTLV-1 infected cell-transplanted mouse (ATL model); type: in vivo; details: day 28 after transplantation, 20 mg/kg per day intraperitoneally for 28 days, NSG mice with S1T cells
Description: In this example, the in vivo effect of Pro-IP6 on an HTLV-1 infected cell-transplanted mouse was checked. HTLV-1 (human T cell leukemia virus 1) mainly infects CD4-positive T lymphocyte, and when the infected cell cancerates, refractory malignant tumor, adult T-cell leukemia (ATL) is caused. In this example, S1T cell, that is, one of ATL cell lines, was used.
5-Week-old female NSG mice (NOD. Cg-Prkdc scid I12rg tm1Wjl/SzJ, Charles River Laboratories Japan, Inc.) were used. Five mice each in each of two cages, namely, ten mice in total, were raised with sterilized bedding (Pepar Clean: Japan SLC, Inc.) placed in a sterilized cage (Clea Japan, Inc.). […]
The control group was dosed with DMSO, and the IP6 administration group and the pro-IP6 administration group were intraperitoneally dosed respectively with IP6 in an amount of 7.1 mg/kg and pro-IP6 in an amount of 20 mg/kg. The mice were dosed continuously for 28 days after the day of the cell transplantation, and the weight and the tumor volume of each mouse were measured every day. The tumor volume was defined as (shorter diameter in mm)^2×(longer diameter in mm)×0.5, and the shorter diameter and the longer diameter were measured with a caliper. […] Subsequently, the tumor was totally removed, and the tumor volume and the tumor weight of each tumor were measured.

Which results are given for CCCC(=O)OCOP(=O)(OCOC(=O)CCC)O[C@H]1[C@H](OP(=O)(OCOC(=O)CCC)OCOC(=O)CCC)[C@@H](OP(=O)(OCOC(=O)CCC)OCOC(=O)CCC)[C@H](OP(=O)(OCOC(=O)CCC)OCOC(=O)CCC)[C@@H](OP(=O)(OCOC(=O)CCC)OCOC(=O)CCC)[C@H]1OP(=O)(OCOC(=O)CCC)OCOC(=O)CCC [Pro-IP6, myo-inositol hexaphosphate dodecakis(butyryloxymethyl) ester]?
cleavage of Caspase-3 (induction of apoptosis) (Caspase-3): cleavage of PARP-1 and Caspase-3 was observed; phosphorylation of Akt (Akt; 1 μM): inhibits phosphorylation of Akt; phosphorylation of Akt (Akt; 10 μM): inhibits phosphorylation of Akt; aggregation of virus protein Gag or MA region in cell (virus protein Gag): aggregated; expression of TRAF6 (TRAF6): inhibits expression of TRAF6; tumor volume smaller as compared with that of the control group [1]: about 25%
